The record followed here is patent EP2762468A1, “2-aminopyridine derivatives as plant growth regulating compounds” (Syngenta Participations AG, priority 2013, dated 2014).

Each structure is given as a SMILES string.

The test system of assay [1] is French beans (Phaseolus vulgaris) of the variety Fulvio. In words: Bean assay: elongation of the petiole of the second leaf. The conditions noted are these: five micro litres of test compound pipetted to the wound at the base of the second internode; measured fourteen days after application. Type of assay: in vivo. On the procedure: (§1) Two bioassays were developed in order to assay the activity of the compounds of the present invention. In the first assay, the activity of the compound was quantified in beans based on its effect on the elongation of the petiole of the second leaf. In the second assay, the compound's effect on the root growth of wheat was determined.
French beans (Phaseolus vulgaris) of the variety Fulvio were sown in 0.5 litres pots in a sandy loam without additional fertilizer. Plants grew under greenhouse conditions at 22/18°C (day/night) and 80% relative humility; light was supplemented […] 25 kLux. Plants were treated with test compounds eleven days after sowing, when the second internode was 2-5 mm long. Before application, the compounds were each dissolved in dimethyl sulfoxide and diluted in a mixture of lanolin-oil and acetone (1:2 ratio by volume). Five micro litres of the test compound was pipetted to the wound that was created after abscising the bract leaf from the base of the second internode. Fourteen days after application, the length of the petiole of the second leaf (measured from the base of the petiole to the base of the first leaflet) was determined in order to quantify the activity of the compounds.

Assay [2] deals with Wheat (Triticum aestivum) seeds of the variety Arina. Kind of assay: Wheat assay: plant (root and shoot) area and curliness of the roots. Type of assay: in vivo. The conditions noted are these: seeds sown in pouches with compound solution; twelve days after sowing/application. On the procedure: as §1
The test compounds were dissolved in small volumes of dimethyl sulfoxide and diluted to the appropriate concentration with water. Wheat (Triticum aestivum) seeds of the variety Arina were sown in pouches (14.7 × 13.2 cm) containing 10 mL of the appropriate compound solution. The pouches were stored at 17 °C for three days to enable the seeds to germinate. Plants were then stored at 5°C. Twelve days after sowing/application, plants were removed from the pouches and scanned. The effect of the compounds was quantified by determining plant (root and shoot) area and curliness of the roots (curliness is an indicator of brassinosteroid-type activity).

For assay [3], the target named is T1, Arabidopsis BIN2 kinase (Uniprot Q39011) (Arabidopsis thaliana, UniProt Q39011).
T1 construct: made in house; host or cells: E. coli BL21
T1 sequence (Q39011 1-380): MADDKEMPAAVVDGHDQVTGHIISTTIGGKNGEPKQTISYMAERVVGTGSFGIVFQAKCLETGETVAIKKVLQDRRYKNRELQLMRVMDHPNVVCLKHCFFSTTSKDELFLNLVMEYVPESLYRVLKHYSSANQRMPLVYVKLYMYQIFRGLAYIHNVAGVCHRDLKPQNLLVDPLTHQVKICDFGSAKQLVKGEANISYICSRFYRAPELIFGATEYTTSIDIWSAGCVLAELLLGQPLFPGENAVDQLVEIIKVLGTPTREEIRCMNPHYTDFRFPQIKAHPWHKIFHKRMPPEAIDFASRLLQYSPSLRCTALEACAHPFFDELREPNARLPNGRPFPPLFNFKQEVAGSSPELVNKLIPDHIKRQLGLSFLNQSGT
In words: In vitro assay for inhibition of plant GSK3/Shaggy-like kinase activity (ADP-Glo). In kind it is biochemical. The conditions noted are these: compounds at 5 µM; 5 µM ATP; myelin basic protein substrate; 1 h at 20°C; triplicate; read-out: inhibited the activity of His6-BIN2 relative to the solvent vehicle control. The procedure: Arabidopsis BIN2 kinase (Uniprot Q39011) was produced in E.coli BL21 as an N-terminal hexahistidine fusion protein. In vitro kinase assays were performed by incubating 50 ng His6-BIN2 protein with 5 µg myelin basic protein (Sigma-Aldrich) as substrate and 5 µM ATP as co-substrate in reaction buffer consisting of 40 mM Tris-HCl, 20 mM MgCl2 and 0.1mg/mL bovine serum albumin in a final reaction volume of 50 µl. Enzyme activity was assessed in the absence and presence of compounds (described in Tables A and B) at 5 µM by measuring the level of ADP produced after incubation for 1 h at 20°C using an enzyme-coupled bioluminescent assay (ADP-Glo, Promega Corp.). The experiment was performed in triplicate.
In general terms: ADP-Glo first removes unused ATP, then detects ADP through luciferase.

On to `O=C1CCC(=O)N1c1cc(C(F)(F)F)ccn1` [Compound B1, 1-[4-(trifluoromethyl)-2-pyridyl]pyrrolidine-2,5-dione], for which the “increase of the length of the petiole of the second leaf” value in assay [1] is listed as at least 10%. Moreover, in assay [2], the “curliness of the roots (indicator of brassinosteroid-type activity)” value is on record as “curly root phenotype”; the “reduction of the plant (root and shoot) area” value is given as at least 5%. Moreover, in assay [3], the inhibition at 5 µM is at least 20%. Take `COC(=O)CCC(=O)Nc1cc([N+](=O)[O-])ccn1` [Compound A5]: the inhibition at 5 µM in assay [3] was at least 20%. Turning to `COC(=O)CCC(=O)Nc1cc(Cl)ccn1` [Compound A1, methyl 4-[(4-chloro-2-pyridyl)amino]-4-oxo-butanoate], the “increase of the length of the petiole of the second leaf” value in assay [1] was at least 10%. For the same molecule, the inhibition at 5 µM in assay [3] is at least 20%. For `N#Cc1ccnc(NC(=O)CCC(=O)O)c1` [Compound A7, 4-[(4-cyano-2-pyridyl)amino]-4-oxo-butanoic acid], in assay [3], the inhibition at 5 µM was at least 20%. Consider `O=C(O)CCC(=O)Nc1cc(C(F)(F)F)ccn1` [Compound A8], for which the inhibition at 5 µM in assay [3] was at least 20%.

As for `COC(=O)CCC(=O)Nc1cc(Br)ccn1` [Compound A9], in assay [3], the inhibition at 5 µM was at least 20%. On to `COC(=O)CCC(=O)Nc1cc(I)ccn1` [Compound A6], for which, in assay [3], the inhibition at 5 µM is at least 20%.

For the molecule `COC(=O)CCC(=O)Nc1cc(C(F)(F)F)ccn1` [Compound A2], the inhibition at 5 µM in assay [3] was at least 20%.

For `COC(=O)CCC(=O)Nc1cc(C#N)ccn1` [Compound A3, methyl 4-[(4-cyano-2-pyridyl)amino]-4-oxo-butanoate], the inhibition at 5 µM in assay [3] was at least 20%.
